Data taken from patent US11419834B2, “Methods for treating diseases or infections caused by or associated with H. pylori using a halogenated salicylanilide” (Rhode Island Hospital, priority 2019, dated 2022).
Converted amounts (≈) assume the structure as drawn.

How the values were obtained:
[1] = system: IL-8 secretion from MKN-28 cells co-cultured with H. pylori; assay: IL-8 secretion, real-time RT-PCR; type: cell-based; conditions: 4×MIC, 1.0 μg/mL, 24 hour incubation, H. pylori infected MKN-28 cells
Protocol: Real-Time (RT-PCR) was carried out to determine whether niclosamide has an inhibitory role in IL-8 secretion. MKN-28 cells were co-cultured with H. pylori (MOI=100) in the presence or absence of a test compound. At 24 hours, RNA was isolated from the infected host cells. cDNA was synthesized using the Verso cDNA (Invitrogen) synthesis kit according to manufacturer instructions. Quantitative real-time reactions were carried out in a Bio-Rad iTaq universal SYBR (Bio-Rad, Hercules, Calif. USA) one-step kit and a CFX98 real-time PCR cycler as described by Zheng et al. (Future Med. Chem. 2018, February; 10(3):283-296). The relative gene expression was calculated from Cq values using a ΔΔCq method.

[2] = system: AGS cells co-cultured with H. pylori (strain 60190); assay: Light microscopy imaging for vacuolation; type: cell-based; conditions: sub-MIC (0.2 μg/mL), 24 h, MOI of 100
Protocol: H. Pylon bacteria secrete VacA toxin via a type V secretion system (Galmiche et al. Gut Microbes. 2010 November-December; 1(6):392-5. 44). This toxin binds to host gastric epithelial cells and its internalization leads to vacuolation, characterized by the accumulation of large vacuoles in gastric epithelial cells during the infection process. AGS cells were harvested and seeded into a 6 well plate at a concentration of 5×10^5 cells, 24 h before experimentation. H. Pylon bacteria (strain 60190) were harvested and washed with sterile PBS and co-cultured with AGS at a MOI of 100. After incubation for 24 h, the cells were washed, magnified under a microscope, and examined for vacuolation. […] After 3 days, the bacteria were washed and treated with TRIZOL (Invitrogen, Carlsbad, Calif., USA), and the RNA concentration was determined using a NanoVue Plus spectrophotometer (GE Healthcare, Fairfield, Conn., USA). PCR amplifications were performed, and the products were analysed by gel electrophoresis (1.0% agarose) containing SYBR® Safe (Invitrogen). Gel images were captured and analysed using the Quantity One System.

[3] = system: H. pylori (strain 60190) adhered to AGS cells; assay: Adhesion of H. pylori to AGS cells; type: cell-based, Helicobacter pylori; conditions: niclosamide 2×MIC, 20 hours, MOI=100
Protocol: The AGS (Gastric adenocarcinoma cell lines) cell line was used to examine inhibition of adhesion and invasion of H. pylori (strain 60190) by niclosamide, as described by Schmitt et al. (Front Cell Infect Microbiol. 2013; 3:93). The AGS cells were grown in Dulbecco's Modified Eagle Medium (DMEM, ex. Gibco), supplemented with 10% fetal bovine serum (Gibco) and 1% penicillin/streptomycin (Gibco) and maintained at 37° C. in 5% C02. Then, 5×10^5 cells in antibiotic and serum-free DMEM were seeded in 6-well plates 24 hours prior to infection. H. pylori bacteria at a multiplicity of infection (MOI)=100 were added and allowed to adhere to the surface of the AGS cells. Planktonic bacteria were removed after 2 hours and DMEM with niclosamide (2×MIC) was then added to the wells containing the AGS. The mammalian cells were lysed by 0.1% saponin after 20 hours of incubation and the adhered bacteria were then serially diluted, plated in Brucella agar supplemented with 10% FBS, and incubated as described above. A control arm of DMSO and a comparator using amoxicillin at a concentration of 0.1 μg/mL (10×MIC) was also assessed. […]

[4] = system: H. pylori bacteria (strain 60190); assay: Multi-step mutation frequency (serial passage resistance study); type: cell-based, Helicobacter pylori
Protocol: To determine whether H. pylori can develop resistance against niclosamide, bacterial cells were suspended in MHB with 10% FBS at OD600=0.06 in the presence of serially diluted niclosamide and incubated, as described in the antibiotic susceptibility assays sub-section. The standard antibiotics amoxicillin and clarithromycin were used as controls. From the highest drug concentration allowing visible growth at sub-MIC concentration, aliquots were diluted (1:40) into fresh medium. These were used to inoculate the second set of serial drug dilutions as described by Dalhoff et al. (Clin Infect Ds. 2001 Mar. 15; 32 Suppl, 1:S16-22). After a 3-day incubation, H. pylori bacteria (strain 60190) were passaged sequentially over 30 days and the OD was recorded.

[5] = system: H. pylori (strain 60190); assay: Effect of pH on MIC (broth microdilution); type: cell-based, Helicobacter pylori
Protocol: The pH was adjusted to acidic condition with 1 N HCl. The minimal bactericidal concentration (MBC) was determined by plating 5 μL of broth culture from the MIC assay onto Müller-Hinton agar (BD Biosciences) supplemented with 10% FBS. After 72 h, the lowest concentration at which colonies were not observed was reported as the MBC.

Compound: O=C(Nc1ccc([N+](=O)[O-])cc1Cl)c1cc(Cl)ccc1O [Niclosamide, niclosamide]
- effect on IL-8 secretion [1]: inhibited IL-8 secretion
- effect on vacuolation of AGS cells [2]: prevented vacuolation
- reduction of CFU/mL counts of adhered bacteria [3]: 3 log10
- development of H. pylori resistance ([4]; 30 day resistance studies): no H. pylori resistance to niclosamide developed
- change in MIC through at least 10 passages ([4]; at least 10 passages): remained constant
- increase in MIC during continuous passage ([4]; passaged sequentially over 30 days): remained unchanged
- MIC ([5]; Helicobacter pylori, acidic pH, tested between pH 7.0 to 5.2, read-out: MIC in low pH): 0.25 µg/mL (≈ 0.764 µM)
- change of MIC at acidic pH compared to pH 7.0 ([5]; pH 7.0 to 5.2): remained the same
